In BindingDB's records for doi:10.1046/j.1471-4159.1994.63020456.x (Syntex Discovery Research, 1994):

These compounds were tested against 5-hydroxytryptamine receptor 7 (Cavia porcellus, UniProt P50407).
5-hydroxytryptamine receptor 7, sequence (P50407 whole entry): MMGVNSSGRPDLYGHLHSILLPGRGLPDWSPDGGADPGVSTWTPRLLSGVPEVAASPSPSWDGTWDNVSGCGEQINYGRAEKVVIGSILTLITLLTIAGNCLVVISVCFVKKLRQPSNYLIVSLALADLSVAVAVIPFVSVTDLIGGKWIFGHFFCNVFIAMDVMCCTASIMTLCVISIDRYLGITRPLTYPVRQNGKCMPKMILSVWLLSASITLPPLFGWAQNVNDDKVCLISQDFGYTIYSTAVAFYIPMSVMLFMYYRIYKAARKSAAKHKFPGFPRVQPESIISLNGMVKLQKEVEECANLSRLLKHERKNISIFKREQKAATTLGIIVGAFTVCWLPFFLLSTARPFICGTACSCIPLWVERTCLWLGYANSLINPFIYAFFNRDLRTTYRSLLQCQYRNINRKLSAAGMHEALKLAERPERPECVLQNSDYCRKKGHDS

**Q.** For `CCCN(CCC)C1CCc2cccc(O)c2C1` (configuration not stated), which Ki is on record?
**A.** Its Ki is 50.1 nM.

**Q.** `CC[C@@H](CO)NC(=O)[C@@H]1C=C2c3cccc4c3c(cn4C)C[C@H]2N(C)C1` was tested. Which Ki did it give?
**A.** Its Ki is 39.8 nM.

**Q.** Which Ki does the source give for `CN(C)CCc1c[nH]c2ccc(O)cc12` [3-[2-(dimethylamino)ethyl]indol-5-ol] here?
**A.** The Ki was 19.9 nM.

**Q.** `O=C(CCCN1CCC2(CC1)C(=O)NCN2c1ccccc1)c1ccc(F)cc1` [8-[4-(4-fluorophenyl)-4-oxidanylidene-butyl]-1-phenyl-1,3,8-triazaspiro[4.5]decan-4-one] was tested. Which Ki did it give?
**A.** Its Ki is 100 nM.

**Q.** With `CNS(=O)(=O)Cc1ccc2[nH]cc(CCN(C)C)c2c1` [Sumax] as the compound, how does the Ki read?
**A.** The Ki was 251 nM.

**Q.** How did the Ki turn out when `NCCc1c[nH]c2ccc(O)cc12` [[3H]-5-HT] was run?
**A.** The Ki was 1 nM.

**Q.** How did the Ki turn out when `COc1ccc2[nH]cc(CCN)c2c1` [tryptamine, 5-Methoxy] was run?
**A.** Its Ki is 1 nM.
